Where two headings read alike, the source gives them in different places.
Assays:
Phytophthora infestans = assay: whole plant or invertebrate; assay type: in vivo; conditions: for pest or weed control at 2 ppm / pest or weed control at 10 ppm / pest or weed control at 50 ppm / pest or weed control at 100 ppm: Phytophthora infestans, in Solanum lycopersicum, read-out: TLB control value (C.V.); for TLB control value (C.V.): tomato late blight
Botrytis cinerae = assay: Fungicidal activity against cucumber gray mold rot (CGM) disease, control value; assay type: in vivo; conditions: 100 ppm; for pest or weed control at 100 ppm: Botrytis, read-out: CGM control value (C.V.)
Rhizoctonia solani AG-1 = assay: Fungicidal activity against rice sheath blight (RSB) disease, control value; conditions: for pest or weed control at 2 ppm / pest or weed control at 10 ppm / pest or weed control at 50 ppm / pest or weed control at 100 ppm: Rhizoctonia solani, AG1, in Oryza sativa, read-out: RSB control value (C.V.)
[1] = system: Pyricularia oryzae Carvara KA301; assay: whole plant or invertebrate; assay type: in vivo; conditions: for pest or weed control at 2 ppm / pest or weed control at 10 ppm / pest or weed control at 50 ppm / pest or weed control at 100 ppm: Pyricularia oryzae, read-out: RCB control value (C.V.); for RCB control value (C.V.): rice blast
Puccinia recondita = assay: Fungicidal activity against wheat leaf rust (WLR) disease, control value; assay type: in vivo; conditions: for pest or weed control at 2 ppm / pest or weed control at 10 ppm / pest or weed control at 50 ppm / pest or weed control at 100 ppm: read-out: WLR control value (C.V.)
Erysiphae graminis = assay: Fungicidal activity against barley powdery mildew (BPM) disease, control value; assay type: in vivo; conditions: for pest or weed control at 2 ppm / pest or weed control at 10 ppm / pest or weed control at 50 ppm / pest or weed control at 100 ppm: 168 h, read-out: BPM control value (C.V.)
[2] = Hordeum vulgare, barley powdery mildew

| Compound | pest or weed control at 2 ppm (Phytophthora infestans) | pest or weed control at 10 ppm (Phytophthora infestans) | pest or weed control at 50 ppm (Phytophthora infestans) | pest or weed control at 100 ppm (Phytophthora infestans) | pest or weed control at 100 ppm (Botrytis cinerae) | pest or weed control at 2 ppm (Rhizoctonia solani AG-1) | pest or weed control at 10 ppm (Rhizoctonia solani AG-1) | pest or weed control at 50 ppm (Rhizoctonia solani AG-1) | pest or weed control at 100 ppm (Rhizoctonia solani AG-1) | pest or weed control at 2 ppm [1] | pest or weed control at 10 ppm [1] | pest or weed control at 50 ppm [1] | pest or weed control at 100 ppm [1] | pest or weed control at 2 ppm (Puccinia recondita; Puccinia recondita) | pest or weed control at 10 ppm (Puccinia recondita; Puccinia recondita) | pest or weed control at 50 ppm (Puccinia recondita; Puccinia recondita) | pest or weed control at 100 ppm (Puccinia recondita; Puccinia recondita, 100 ppm) | pest or weed control at 2 ppm (Erysiphae graminis) | pest or weed control at 10 ppm (Erysiphae graminis) | pest or weed control at 50 ppm (Erysiphae graminis) | also measured |
| --- | --- | --- | --- | --- | --- | --- | --- | --- | --- | --- | --- | --- | --- | --- | --- | --- | --- | --- | --- | --- | --- |
| CCOc1cc(C=C(Cl)Cl)ccc1OCc1ccccc1/C(=N\OC)C(=O)NC [Example 60, (E)-2-(2-((4-(2,2-dichlorovinyl)-2-ethoxyphenoxy)methyl)phenyl)-2-methoxyimino-N-methylacetamide] | 70% | 92% | 95% | 100% | 45% | 98% | 100% | 100% | 100% | 80% | 96% | 100% | 100% | 95% | 100% | 100% | 100% | 95% | 98% | 100% | pest or weed control at 100 ppm (Erysiphae graminis; 100 ppm): 100% |
| CNC(=O)/C(=N/OC)c1ccccc1CON=C(C)c1ccc(C=C(F)Cl)cc1 [Example 34, (E)-2-[[[[[2-[4-(2-chloro-2-fluorovinyl)phenyl](1-methyl)methylidene]amino]oxy]methyl]phenyl]-2-methoxyimino-N-methylacetamide] | – | – | – | – | – | – | – | – | – | – | – | – | – | – | – | – | – | – | – | – | TLB control value (C.V.) (Phytophthora infestans; 50 ppm): 35%; TLB control value (C.V.) (Phytophthora infestans; 100 ppm): 98%; CGM control value (C.V.) (Botrytis cinerae; cucumber gray mold rot): 40%; RSB control value (C.V.) (Rhizoctonia solani AG-1; 100 ppm, rice sheath blight): 15%; RCB control value (C.V.) ([1]; 50 ppm): 90%; RCB control value (C.V.) ([1]; 100 ppm): 95%; WLR control value (C.V.) (Puccinia recondita; 100 ppm, wheat leaf rust): 72%; BPM control value (C.V.) (Erysiphae graminis; 100 ppm, barley powdery mildew): 60% |
| CCOc1cc(C=C(Br)Br)ccc1OCc1ccccc1/C(=N\OC)C(=O)OC [Example 83, methyl-(E)-2-(2-((4-(2,2-dibromovinyl)-2-ethoxyphenoxy)methyl)phenyl)-2-methoxyiminoacetate] | 70% | 90% | 98% | 100% | 50% | 75% | 98% | 100% | 100% | 50% | 90% | 100% | 100% | 95% | 100% | 100% | 100% | 95% | 100% | 100% | pest or weed control at 100 ppm (Erysiphae graminis; 100 ppm): 100% |
| CNC(=O)/C(=N/OC)c1ccccc1COc1ccc(C=C(Cl)Br)cc1 [Example 18, (2E)-2-(2-((4-(2-bromo-2-chlorovinyl)phenoxy)methyl)phenyl)-2-methoxyimino-N-methylacetamide] | 30% | 80% | 100% | 100% | – | 90% | 98% | 100% | 100% | 100% | 100% | 100% | 100% | – | – | – | – | – | – | – | pest or weed control at 100 ppm (Botrytis cinerae; cucumber gray mold rot): 45%; pest or weed control at 2 ppm (Puccinia recondita; wheat leaf rust): 100%; pest or weed control at 10 ppm (Puccinia recondita; wheat leaf rust): 100%; pest or weed control at 50 ppm (Puccinia recondita; wheat leaf rust): 100%; pest or weed control at 100 ppm (Puccinia recondita; 100 ppm, wheat leaf rust): 100%; pest or weed control at 2 ppm (Erysiphae graminis; [2]): 95%; pest or weed control at 10 ppm (Erysiphae graminis; [2]): 98%; pest or weed control at 50 ppm (Erysiphae graminis; [2]): 100%; pest or weed control at 100 ppm (Erysiphae graminis; Hordeum vulgare, 100 ppm, barley powdery mildew): 100% |

— patent publication US8410302B2, “Methoxyimino compounds and fungicide composition comprising same” (Kyung Nong Corporation, priority 2007, dated 2013)
